pIC50, pKi: −log10 of the molar value.
Experiments:
[1] = system: Aortic Smooth Muscle Cells (A7r5); assay: Induction of apoptosis by Cell Death ELISA (cytoplasmic histone-DNA fragments) in A7r5 cells; assay type: cell-based, rat; conditions: 24 h treatment, serum free medium, FIG. 4
Procedure: Induction of Apoptosis in Aortic Smooth Muscle Cells (A7r5) by wax myrtle extract and myriceric acid,: Quantitation of apoptotic cell death was determined by Cell Death ELISA (Roche Biochemicals) that measures cytoplasmic histone-DNAfragments produced during apoptosis. Briefly, A7r5 cells (5×10^3/well)were grown in 96-well plates and treated, in triplicates, for 24 h with the indicated doses of wax myrtle extract and myriceric acid A. After treatment, the 96-well plates were centrifuged (200×g) for 10 min. The supernatant was discarded, lysis buffer was added, and samples were incubated at room temperature. Lysates were transferred to reaction wells and incubated with anti-histone biotin and anti-DNA peroxidase antibodies and incubated at room temperature for 2 h. After three washes, the peroxidase substrate was added to each well, and the plates were read at 405 nm after 15-min incubation. The enrichment of histone-DNAfragments treated cells is expressed as absorbance at 405 nm.

[2] = system: Aortic Smooth Muscle Cells (A7r5); assay: Methylene Blue Cell Proliferation assay, Aortic Smooth Muscle Cells (A7r5); assay type: cell-based, rat; conditions: 3 days, methylene blue staining, serum free medium, FIG. 3
Procedure: Inhibition of Proliferation of Aortic Smooth Muscle Cells (A7r5) by wax myrtle extract: The Methylene Blue Cell Proliferation assay assess growth inhibition in a cell-based proliferation assay using protein staining as an estimate of relative cell number. For assessment of cell-based potency, A7r5 (20,000 cells/well) were plated in 96-well plates in the growth media. After 24 h, cells were exposed to compounds at different concentrations. A final concentration of 0.2% DMSO was added to the growth media to keep the compounds in solution. After 3 days, relative cell numbers were estimated using methylene blue staining. The absorbance at 620 nm was read in a microplate reader. Data were analyzed using curve-fitting macros written for Microsoft Excel. Concentrations with IC50 were interpolated using the equation: y=Vmax×[1−(x^n/(K^n+x^n))], where “K” is equal to IC50.

[3] = system: ET-1-induced [Ca++] flux in rat aortic smooth muscle cells A7r5; conditions: reference (23), cited from earlier work
[4] = target: T1, ET receptor, rat aortic smooth muscle cells (Rattus norvegicus, UniProt P26684); conditions: reference (23), cited from earlier work
T1 construct: endogenous in cells; host or cells: rat aortic smooth muscle cells
T1 sequence (P26684 21-426): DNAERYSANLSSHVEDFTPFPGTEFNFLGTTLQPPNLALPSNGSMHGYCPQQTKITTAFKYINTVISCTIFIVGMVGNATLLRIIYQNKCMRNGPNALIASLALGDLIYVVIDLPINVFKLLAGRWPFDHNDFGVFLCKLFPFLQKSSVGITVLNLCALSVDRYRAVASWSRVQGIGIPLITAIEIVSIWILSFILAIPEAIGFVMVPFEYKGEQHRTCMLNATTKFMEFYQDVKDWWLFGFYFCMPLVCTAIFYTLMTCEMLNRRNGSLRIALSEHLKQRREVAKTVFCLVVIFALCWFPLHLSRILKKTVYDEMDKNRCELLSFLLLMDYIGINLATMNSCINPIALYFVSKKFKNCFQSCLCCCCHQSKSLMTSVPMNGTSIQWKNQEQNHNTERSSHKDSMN

Substance: Myriceric acid A
- apoptosis, enrichment of histone-DNA fragments (absorbance at 405 nm) [1]: dose-dependent apoptosis
- estimated IC50, growth inhibition of A7r5 [2]: 0.87±0.30 […]μg/ml
- pIC50 ([3]; repeated as I50 for block of ET signaling pathway, read-out: IC50, inhibition of ET-1-induced [Ca++] flux): 7.96
- IC50, inhibition of ET-1-induced [Ca++] flux [3]: 0.0075 µg/mL
- Ki, binding of radiolabeled ET to rat aortic smooth muscle cells [4]: 0.04 µg/mL
- pKi ([4]; read-out: Ki, binding of radiolabeled ET to rat aortic smooth muscle cells): 7.18

Source: patent publication US20090022821A1, “COMPOSITIONS FROM WAX MYRTLE FOR THE TREATMENT OF CANCER, CARDIOVASCULAR AND INFLAMMATORY DISEASES” (priority 2007, published 2009)
